In patent US10596184B2, “Aza-heteroaryl compounds as PI3K-gamma inhibitors” (Incyte Corporation, priority 2015, dated 2020) one finds IC50 data, which are given here for two compounds.

Read-outs that look alike come from different tables or passages of the source.

Usually IC50 stands for the midpoint of a concentration-inhibition curve.

The assay relates to Phosphorylated Ribosomal Protein S6 (RPS6) in THP-1 cells. Briefly: THP-1 RPS6 ELISA Assay. The settings on record: 2 hours with compound, then 10 nM MCP-1 for 15 minutes, read-out: THP p-RPS6 ELISA IC50. The assay is classed as cell-based, Human. The protocol: To measure the Phosphorylated Ribosomal Protein S6 (RPS6) in cell lysates, THP-1 cells (Human Acute Monocytic Leukemia) are purchased from ATCC (Manassas, Va.) and maintained in RPMI with 10% FBS (Gibco/Life Technologies, Carlsbad, Calif.). For the assay, THP-1 cells are serum starved overnight in RPMI, then plated in RPMI (2×10^5 cells/well in 90 μL) into 96-well flat-bottom tissue culture treated plates (Corning, Corning, N.Y.), in the presence or absence of a concentration range of test compounds. Covered plates are incubated for 2 hours at 37° C., 5% CO2 then treated with or without 10 nM MCP-1 (MYBioSource, San Diego, Calif.) for 15 minutes at 37° C., 5% CO2. Plates are centrifuged at 1600 RPM and supernatants are removed. Cells are lysed in Lysis Buffer (Cell Signaling, Danvers, Mass.) with Protease Inhibitor (Calbiochem/EMD, Germany), PMSF (Sigma, St Louis Mo.), HALTS (Thermo Fisher, Rockford, Ill.) for 30 min on wet ice. Cell lysates are frozen at −80° C. before testing. The lysates are tested in the Human/Mouse/Rat Phospho-RPS6 ELISA (R&D Systems, Inc. Minn, Minn.). The plate is measured using a microplate reader (SpectraMax M5—Molecular Devices, LLC Sunnyvale, Calif.) set to 450 nm with a wavelength correction of 540. […]

Take `CCS(=O)(=O)Nc1cncc(-c2ccc3nc(-c4nc(C)c(C)[nH]4)oc3c2)c1` [Example 63, N-(5-(2-(4,5-Dimethyl-1H-imidazol-2-yl)benzo[d]oxazol-6-yl)pyridin-3-yl)ethanesulfonamide bis(trifluoroacetate)]: where the note is “Homo sapiens”, the IC50 was less than 5000 nM. As to `CN1CCN(S(=O)(=O)Nc2cncc(-c3ccc4nc(-c5nc6ccccc6[nH]5)oc4c3)c2)CC1` [Example 31, N-(5-(2-(1H-Benzofdlimidazol-2-yl)benzo[d]oxazol-6-yl)pyridin-3-yl)-4-methylpiperazine-1-sulfonamide], the IC50 is less than 1000 nM.
